In US8772300B2, “Phenyl or pyridinyl-ethynyl derivatives” (Hoffmann-La Roche Inc., priority 2011, dated 2014):

Target: T1, human mGlu5a receptor (Homo sapiens, UniProt P41594)
T1 construct: expressed in transfected cells
Experiment: Intracellular Ca2+ mobilization assay (mGlu5 PAM)
Type: cell-based
Conditions: for Emax: HEK293, maximal response in % of the maximal stimulatory effect obtained with saturating concentrations of L-glutamate, HEK-293 human mGlu5a cells, read-out: Eff. (%); for EC50: HEK-293 cells stably transfected with human mGlu5a receptor, L-glutamate added at EC20 (typically around 80 μM) after 10-30 min pre-incubation with test compound, read-out: EC50 (nM) mGlu5PAM
Protocol: A monoclonal HEK-293 cell line stably transfected with a cDNA encoding for the human mGlu5a receptor was generated; for the work with mGlu5 Positive Allosteric Modulators (PAMs), a cell line with low receptor expression levels and low constitutive receptor activity was selected to allow the differentiation of agonistic versus PAM activity. Cells were cultured according to standard protocols (Freshney, 2000) in Dulbecco's Modified Eagle Medium with high glucose supplemented with 1 mM glutamine, 10% (vol/vol) heat-inactivated bovine calf serum, Penicillin/Streptomycin, 50 μg/ml hygromycin and 15 μg/ml blasticidin (all cell culture reagents and antibiotics from Invitrogen, Basel, Switzerland).
About 24 hrs before an experiment, 5×10^4 cells/well were seeded in poly-D-lysine coated, black/clear-bottomed 96-well plates. The cells were loaded with 2.5 μM Fluo-4AM in loading buffer (1×HBSS, 20 mM HEPES) for 1 hr at 37° C. and washed five times with loading buffer. The cells were transferred into a Functional Drug Screening System 7000 (Hamamatsu, Paris, France), and 11 half logarithmic serial dilutions of test compound at 37° C. were added and the cells were incubated for 10-30 min with on-line recording of fluorescence. Following this pre-incubation step, the agonist L-glutamate was added to the cells at a concentration corresponding to EC20 (typically around 80 μM) with on-line recording of fluorescence; in order to account for day-to-day variations in the responsiveness of cells, the EC20 of glutamate was determined immediately ahead of each experiment by recording of a full dose-response curve of glutamate.
Responses were measured as peak increase in fluorescence minus basal (i.e. fluorescence without addition of L-glutamate), normalized to the maximal stimulatory effect obtained with saturating concentrations of L-glutamate. Graphs were plotted with the % maximal stimulatory using XLfit, a curve fitting program that iteratively plots the data using Levenburg Marquardt algorithm. The single site competition analysis equation used was y=A+((B−A)/(1+((x/C)D))), where y is the % maximal stimulatory effect, A is the minimum y, B is the maximum y, C is the EC50, x is the log 10 of the concentration of the competing compound and D is the slope of the curve (the Hill Coefficient). From these curves the EC50 (concentration at which half maximal stimulation was achieved), the Hill coefficient as well as the maximal response in % of the maximal stimulatory effect obtained with saturating concentrations of L-glutamate were calculated.
A depression of the signal observed after addition of the EC20 concentration of L-glutamate was indicative of an inhibitory activity of the test compound.

T1 sequence (P41594 21-1180 isoform P41594-2 limits assumed): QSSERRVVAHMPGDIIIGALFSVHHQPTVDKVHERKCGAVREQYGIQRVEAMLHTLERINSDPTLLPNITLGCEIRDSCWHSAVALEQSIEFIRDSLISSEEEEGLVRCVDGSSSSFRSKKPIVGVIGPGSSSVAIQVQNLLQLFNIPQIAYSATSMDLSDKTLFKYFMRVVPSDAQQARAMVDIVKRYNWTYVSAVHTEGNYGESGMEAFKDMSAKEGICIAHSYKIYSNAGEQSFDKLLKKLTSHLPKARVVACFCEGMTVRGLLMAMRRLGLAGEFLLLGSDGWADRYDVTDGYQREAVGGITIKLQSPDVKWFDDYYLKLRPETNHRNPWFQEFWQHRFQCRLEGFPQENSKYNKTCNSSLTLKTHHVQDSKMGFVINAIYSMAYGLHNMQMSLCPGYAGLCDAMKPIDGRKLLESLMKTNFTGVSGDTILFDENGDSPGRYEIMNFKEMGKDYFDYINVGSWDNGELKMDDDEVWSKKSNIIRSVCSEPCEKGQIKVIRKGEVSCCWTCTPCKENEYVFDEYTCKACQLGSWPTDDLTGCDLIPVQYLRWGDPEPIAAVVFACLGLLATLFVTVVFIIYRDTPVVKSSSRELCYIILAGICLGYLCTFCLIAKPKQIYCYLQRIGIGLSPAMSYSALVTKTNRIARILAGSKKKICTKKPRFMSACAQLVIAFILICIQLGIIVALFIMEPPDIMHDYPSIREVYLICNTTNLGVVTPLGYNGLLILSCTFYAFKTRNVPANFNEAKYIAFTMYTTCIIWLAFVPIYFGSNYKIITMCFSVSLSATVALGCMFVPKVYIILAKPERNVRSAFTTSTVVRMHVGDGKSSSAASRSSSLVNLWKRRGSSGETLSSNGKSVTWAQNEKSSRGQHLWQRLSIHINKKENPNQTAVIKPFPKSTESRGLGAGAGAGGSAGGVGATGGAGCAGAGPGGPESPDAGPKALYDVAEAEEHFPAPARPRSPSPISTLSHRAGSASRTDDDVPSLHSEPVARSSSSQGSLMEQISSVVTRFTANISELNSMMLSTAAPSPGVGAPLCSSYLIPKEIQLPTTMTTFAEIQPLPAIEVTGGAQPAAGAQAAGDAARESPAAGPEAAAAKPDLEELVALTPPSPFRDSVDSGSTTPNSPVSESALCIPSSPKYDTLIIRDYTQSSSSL

Row | Compound | Emax [%] | EC50 [nM]
1 | Cc1cc(C#Cc2cccc(F)c2)cnc1C(=O)N(C)C(C)(C)C [Example 17, 5-(3-Fluoro-phenylethynyl)-3-methyl-pyridine-2-carboxylic Acid tert-butyl-methyl-amide] | 49 | 37
2 | CC1(C)CN(C(=O)c2ncc(C#Cc3ccccc3)cn2)CCC1O (racemic) [Example 48, (RS)-(4-Hydroxy-3,3-dimethyl-piperidin-1-yl)-(5-phenylethynyl-pyrimidin-2-yl)-methanone] | 55 | 49
3 | CC1(C)CC(O)CCN1C(=O)c1ncc(C#Cc2ccccc2)cn1 (racemic) [Example 47, (RS)-(4-Hydroxy-2,2-dimethyl-piperidin-1-yl)-(5-phenylethynyl-pyrimidin-2-yl)-methanone] | 57 | 66
4 | CN(C(=O)c1ncc(C#Cc2cccc(F)c2)cc1F)C(C)(C)C [Example 21, 3-Fluoro-5-(3-fluoro-phenylethynyl)-pyridine-2-carboxylic Acid tert-butyl-methyl-amide] | 54 | 18
5 | CN(C(=O)c1ccc(C#Cc2cccc(F)c2)cn1)C(C)(C)C [Example 3, 5-(3-Fluoro-phenylethynyl)-pyridine-2-carboxylic Acid tert-butyl-methyl-amide] | 64 | 16
6 | CN(C(=O)c1ccc(C#Cc2cncc(Cl)c2)cn1)C1(C(F)(F)F)CC1 [Example 53, 5-(5-Chloro-pyridin-3-ylethynyl)-pyridine-2-carboxylic Acid methyl-(1-trifluoromethyl-cyclopropyl)-amide] | 57 | 44
7 | CC(C)(NC(=O)c1ncc(C#Cc2ccnc(Cl)c2)cn1)C(F)(F)F [Example 58, 5-(2-Chloro-pyridin-4-ylethynyl)-pyrimidine-2-carboxylic Acid (2,2,2-trifluoro-1,1-dimethyl-ethyl)-amide] | 30 | 57
8 | CC1(C)CN(C(=O)c2ccc(C#Cc3ccccc3)cn2)CCC1O (racemic) [Example 39, (RS)-(4-Hydroxy-3,3-dimethyl-piperidin-1-yl)-(5-phenylethynyl-pyridin-2-yl)-methanone] | 58 | 35
